Tested on: HCT-116
Assay: Cytotoxicity against human HCT116 cells overexpressing GST-Pi assessed as inhibition of cell viability at 10 uM after 48 hrs by MTT assay relative to control
Assay type: functional
Settings: HCT-116, 48 h

In order of falling inhibition at 10 µM:
1. COc1ccc(C2CC(c3cccc(Oc4cc(O/N=[N+](\[O-])N5CCCCC5)c([N+](=O)[O-])cc4[N+](=O)[O-])c3)=NN2C(C)=O)cc1 (stereo not drawn)  80.4%
2. CC(=O)N1N=C(c2cccc(Oc3cc(O/N=[N+](\[O-])N4CCOCC4)c([N+](=O)[O-])cc3[N+](=O)[O-])c2)CC1c1ccc(N(C)C)cc1 (stereo not drawn)  78.3%

Tested on: MDA-MB-231
Assay: Antiproliferative activity against human MDA-MB-231 cells after 48 hrs by MTT assay relative to control
Assay type: functional, cell-based
Settings: MDA-MB-231, 48 h

In order of falling IC50:
1. COc1ccc(C2CC(c3cccc(Oc4cc(O/N=[N+](\[O-])N5CCCCC5)c([N+](=O)[O-])cc4[N+](=O)[O-])c3)=NN2C(C)=O)cc1 (stereo not drawn)  5.68 µM
2. CC(=O)N1N=C(c2cccc(Oc3cc(O/N=[N+](\[O-])N4CCOCC4)c([N+](=O)[O-])cc3[N+](=O)[O-])c2)CC1c1ccc(N(C)C)cc1 (stereo not drawn)  2.9 µM

Tested on: HCT-116
Assay: Antiproliferative activity against human HCT116 cells after 48 hrs by MTT assay relative to control
Assay type: functional, cell-based
Settings: HCT-116, 48 h

In order of rising IC50:
1. CC(=O)N1N=C(c2cccc(Oc3cc(O/N=[N+](\[O-])N4CCOCC4)c([N+](=O)[O-])cc3[N+](=O)[O-])c2)CC1c1ccc(N(C)C)cc1 (stereo not drawn)  2.7 µM
2. COc1ccc(C2CC(c3cccc(Oc4cc(O/N=[N+](\[O-])N5CCCCC5)c([N+](=O)[O-])cc4[N+](=O)[O-])c3)=NN2C(C)=O)cc1 (stereo not drawn)  4.14 µM

Tested on: A549
Assay: Antiproliferative activity against human A549 cells after 48 hrs by MTT assay relative to control
Assay type: functional, cell-based
Settings: A549, 48 h

In order of rising IC50:
1. CC(=O)N1N=C(c2cccc(Oc3cc(O/N=[N+](\[O-])N4CCOCC4)c([N+](=O)[O-])cc3[N+](=O)[O-])c2)CC1c1ccc(N(C)C)cc1 (stereo not drawn)  1.97 µM
2. COc1ccc(C2CC(c3cccc(Oc4cc(O/N=[N+](\[O-])N5CCCCC5)c([N+](=O)[O-])cc4[N+](=O)[O-])c3)=NN2C(C)=O)cc1 (stereo not drawn)  4.7 µM

Tested on: U2OS
Assay: Antiproliferative activity against human U2OS cells after 48 hrs by MTT assay relative to control
Assay type: functional, cell-based
Settings: not given

In order of rising IC50:
1. CC(=O)N1N=C(c2cccc(Oc3cc(O/N=[N+](\[O-])N4CCOCC4)c([N+](=O)[O-])cc3[N+](=O)[O-])c2)CC1c1ccc(N(C)C)cc1 (stereo not drawn)  2.46 µM
2. COc1ccc(C2CC(c3cccc(Oc4cc(O/N=[N+](\[O-])N5CCCCC5)c([N+](=O)[O-])cc4[N+](=O)[O-])c3)=NN2C(C)=O)cc1 (stereo not drawn)  7.49 µM

Tested on: MCF-10A
Assay: Antiproliferative activity against human MCF10A cells after 48 hrs by MTT assay relative to control
Assay type: cell-based
Settings: not given

In order of falling IC50:
1. COc1ccc(C2CC(c3cccc(Oc4cc(O/N=[N+](\[O-])N5CCCCC5)c([N+](=O)[O-])cc4[N+](=O)[O-])c3)=NN2C(C)=O)cc1 (stereo not drawn)  46.9 µM
2. CC(=O)N1N=C(c2cccc(Oc3cc(O/N=[N+](\[O-])N4CCOCC4)c([N+](=O)[O-])cc3[N+](=O)[O-])c2)CC1c1ccc(N(C)C)cc1 (stereo not drawn)  16.4 µM

Tested on: not listed separately
Assay: Selectivity ratio of IC50 for human MCF10A cells to IC50 for human MDA-MB-231 cells
Assay type: toxicity
Settings: MCF10A cells versus MDA-MB-231 cells, read-out: Ratio IC50

In order of rising selectivity ratio:
1. CC(=O)N1N=C(c2cccc(Oc3cc(O/N=[N+](\[O-])N4CCOCC4)c([N+](=O)[O-])cc3[N+](=O)[O-])c2)CC1c1ccc(N(C)C)cc1 (stereo not drawn)  5.6
2. COc1ccc(C2CC(c3cccc(Oc4cc(O/N=[N+](\[O-])N5CCCCC5)c([N+](=O)[O-])cc4[N+](=O)[O-])c3)=NN2C(C)=O)cc1 (stereo not drawn)  8.2

Tested on: not listed separately
Assay: Selectivity ratio of IC50 for human HCT116 cells to IC50 for human MDA-MB-231 cells
Assay type: functional
Settings: not given

In order of falling “Ratio IC50” value:
1. CC(=O)N1N=C(c2cccc(Oc3cc(O/N=[N+](\[O-])N4CCOCC4)c([N+](=O)[O-])cc3[N+](=O)[O-])c2)CC1c1ccc(N(C)C)cc1 (stereo not drawn)  0.9
2. COc1ccc(C2CC(c3cccc(Oc4cc(O/N=[N+](\[O-])N5CCCCC5)c([N+](=O)[O-])cc4[N+](=O)[O-])c3)=NN2C(C)=O)cc1 (stereo not drawn)  0.7

Tested on: not listed separately
Assay: Selectivity ratio of IC50 for human A549 cells to IC50 for human MDA-MB-231 cells
Assay type: functional
Settings: not given

In order of falling “Ratio IC50” value:
1. COc1ccc(C2CC(c3cccc(Oc4cc(O/N=[N+](\[O-])N5CCCCC5)c([N+](=O)[O-])cc4[N+](=O)[O-])c3)=NN2C(C)=O)cc1 (stereo not drawn)  1.5
2. CC(=O)N1N=C(c2cccc(Oc3cc(O/N=[N+](\[O-])N4CCOCC4)c([N+](=O)[O-])cc3[N+](=O)[O-])c2)CC1c1ccc(N(C)C)cc1 (stereo not drawn)  0.7

Tested on: not listed separately
Assay: Selectivity ratio of IC50 for human U2OS cells to IC50 for human MDA-MB-231 cells
Assay type: functional
Settings: not given

In order of rising “Ratio IC50” value:
1. CC(=O)N1N=C(c2cccc(Oc3cc(O/N=[N+](\[O-])N4CCOCC4)c([N+](=O)[O-])cc3[N+](=O)[O-])c2)CC1c1ccc(N(C)C)cc1 (stereo not drawn)  0.8
2. COc1ccc(C2CC(c3cccc(Oc4cc(O/N=[N+](\[O-])N5CCCCC5)c([N+](=O)[O-])cc4[N+](=O)[O-])c3)=NN2C(C)=O)cc1 (stereo not drawn)  1.7

Tested on: HCT-116
Assay: Growth inhibition of human HCT116 cells at 5 uM after 24 hrs by MTT assay relative to control
Assay type: functional
Settings: HCT-116, 24 h, read-out: GI

In the case of COc1ccc(C2CC(c3cccc(Oc4cc(O/N=[N+](\[O-])N5CCCCC5)c([N+](=O)[O-])cc4[N+](=O)[O-])c3)=NN2C(C)=O)cc1 (stereo not drawn), the inhibition of growth at 5 µM is reported as 67.9%.

Tested on: HCT-116
Assay: Growth inhibition of human HCT116 cells at 5 uM after 24 hrs in presence of GST-Pi inhibitor etacrynic acid by MTT assay relative to control
Assay type: functional
Settings: HCT-116, 24 h, read-out: GI

For COc1ccc(C2CC(c3cccc(Oc4cc(O/N=[N+](\[O-])N5CCCCC5)c([N+](=O)[O-])cc4[N+](=O)[O-])c3)=NN2C(C)=O)cc1 (stereo not drawn), the inhibition of growth at 5 µM was 14.8%.

Target: T1, Glutathione S-transferase P (Homo sapiens, UniProt P09211)
T1 sequence (P09211 whole entry): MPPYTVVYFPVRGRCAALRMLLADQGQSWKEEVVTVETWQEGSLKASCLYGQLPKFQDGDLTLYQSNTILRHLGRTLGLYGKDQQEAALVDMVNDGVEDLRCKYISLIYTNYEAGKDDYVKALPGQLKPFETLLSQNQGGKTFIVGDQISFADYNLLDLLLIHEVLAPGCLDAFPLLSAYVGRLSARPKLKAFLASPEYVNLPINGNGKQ
Assay: Prodrug activation in human HCT116 cells assessed as GST-Pi-mediated NO release at 5 uM by nitrate reductase assay
Assay type: cell-based
Settings: not given

In the case of CC(=O)N1N=C(c2cccc(Oc3cc(O/N=[N+](\[O-])N4CCOCC4)c([N+](=O)[O-])cc3[N+](=O)[O-])c2)CC1c1ccc(N(C)C)cc1 (stereo not drawn), the Drug metabolism is reported as “Dose-dependent effect”.

Species on record: Homo sapiens
Assay: Inhibition of MDR in human MCF7/ADR cells assessed as potentiation of adriamycin-induced antiproliferative activity by measuring fold reduction in adriamycin IC50 at 10 uM after 48 hrs by MTT assay
Assay type: cell-based
Settings: not given

In order of falling fold change (FC):
1. COc1ccc(C2CC(c3cccc(Oc4cc(O/N=[N+](\[O-])N5CCCCC5)c([N+](=O)[O-])cc4[N+](=O)[O-])c3)=NN2C(C)=O)cc1 (stereo not drawn)  61.9
2. CC(=O)N1N=C(c2cccc(Oc3cc(O/N=[N+](\[O-])N4CCOCC4)c([N+](=O)[O-])cc3[N+](=O)[O-])c2)CC1c1ccc(N(C)C)cc1 (stereo not drawn)  33.4

Target: T1, Glutathione S-transferase P
Assay: Prodrug activation in human HCT116 cells assessed as GST-Pi-mediated NO release at 5 uM after 24 hrs in presence of NO scavenger carboxy-PTIO by nitrate reductase assay
Assay type: cell-based
Settings: not given

For CC(=O)N1N=C(c2cccc(Oc3cc(O/N=[N+](\[O-])N4CCOCC4)c([N+](=O)[O-])cc3[N+](=O)[O-])c2)CC1c1ccc(N(C)C)cc1 (stereo not drawn), the Drug metabolism was “Metabolite_Notdetected”.
With COc1ccc(C2CC(c3cccc(Oc4cc(O/N=[N+](\[O-])N5CCCCC5)c([N+](=O)[O-])cc4[N+](=O)[O-])c3)=NN2C(C)=O)cc1 (stereo not drawn) the Drug metabolism was “Metabolite_Notdetected”.

Target: T1, Glutathione S-transferase P
Assay: Prodrug activation in human HCT116 cells assessed as GST-Pi-mediated NO release at 5 uM after 24 hrs in presence of GST-Pi inhibitor etacrynic acid by nitrate reductase assay
Assay type: cell-based
Settings: not given

With CC(=O)N1N=C(c2cccc(Oc3cc(O/N=[N+](\[O-])N4CCOCC4)c([N+](=O)[O-])cc3[N+](=O)[O-])c2)CC1c1ccc(N(C)C)cc1 (stereo not drawn) the Drug metabolism was “Metabolite_Notdetected”.
For COc1ccc(C2CC(c3cccc(Oc4cc(O/N=[N+](\[O-])N5CCCCC5)c([N+](=O)[O-])cc4[N+](=O)[O-])c3)=NN2C(C)=O)cc1 (stereo not drawn), the Drug metabolism was “Metabolite_Notdetected”.

Tested on: not listed separately
Assay: Cytotoxicity against ADR-sensitive human MCF7 cells assessed as inhibition of cell viability at 10 uM after 48 hrs by MTT assay relative to control
Assay type: cell-based
Settings: read-out: INH

In order of rising cytotoxicity at 48 h, 10 µM:
1. COc1ccc(C2CC(c3cccc(Oc4cc(O/N=[N+](\[O-])N5CCCCC5)c([N+](=O)[O-])cc4[N+](=O)[O-])c3)=NN2C(C)=O)cc1 (stereo not drawn)  15.1%
2. CC(=O)N1N=C(c2cccc(Oc3cc(O/N=[N+](\[O-])N4CCOCC4)c([N+](=O)[O-])cc3[N+](=O)[O-])c2)CC1c1ccc(N(C)C)cc1 (stereo not drawn)  21.9%

Tested on: MCF7
Assay: Cytotoxicity against ADR-sensitive human MCF7 cells assessed as inhibition of cell viability after 48 hrs by MTT assay
Assay type: cell-based
Settings: MCF7, 48 h

In order of rising IC50:
1. CC(=O)N1N=C(c2cccc(Oc3cc(O/N=[N+](\[O-])N4CCOCC4)c([N+](=O)[O-])cc3[N+](=O)[O-])c2)CC1c1ccc(N(C)C)cc1 (stereo not drawn)  22 µM
2. COc1ccc(C2CC(c3cccc(Oc4cc(O/N=[N+](\[O-])N5CCCCC5)c([N+](=O)[O-])cc4[N+](=O)[O-])c3)=NN2C(C)=O)cc1 (stereo not drawn)  27.6 µM
